Laboratory results taken from patent US9308187B2, “Adhesive patch comprising diclofenac sodium” (HISAMITSU PHARMACEUTICAL CO., INC., priority 2012, dated 2016).
Like-named read-outs stand apart in the source and are kept apart here.

Experiment: Solubilities in a variety of solubilizers
Type: physicochemical
Conditions: organic solvent or mixture
Description: Thus, in order to search for components which suppress the time-dependent crystallization of diclofenac and diclofenac sodium and which can comprise diclofenac sodium in the adhesive layer at a high concentration (3% by mass or greater) of diclofenac, the solubilities of diclofenac and diclofenac sodium were measured in a variety of solubilizers.

solubility (N-methylpyrrolidone (NMP), solvent N-methylpyrrolidone, read-out: solubility in N-methylpyrrolidone (NMP)): ≥ 100 mg/mL
solubility (dimethyl sulfoxide (DMSO), solvent dimethyl sulfoxide, read-out: solubility in dimethyl sulfoxide (DMSO)): ≥ 100 mg/mL
solubility (dipropylene glycol (DPG), solvent dipropylene glycol, read-out: solubility in dipropylene glycol (DPG)): ≥ 100 mg/mL
solubility (polyethylene glycol (PEG-400), solvent polyethylene glycol, read-out: solubility in polyethylene glycol (PEG-400)): ≥ 100 mg/mL
SMILES: O=C(O)Cc1ccccc1Nc1c(Cl)cccc1Cl [diclofenac]
